Key:
Carbonic anhydrase 9 = Carbonic anhydrase 9 (Homo sapiens, UniProt Q16790); test: Inhibition of recombinant human carbonic anhydrase 9 assessed as inhibition constant preincubated with enzyme for 10 mins by phenol red dye based stopped flow CO2 hydration assay
Carbonic anhydrase 2 = Carbonic anhydrase 2 (Homo sapiens, UniProt P00918); test: Inhibition of recombinant human carbonic anhydrase 2 assessed as inhibition constant preincubated with enzyme for 10 mins by phenol red dye based stopped flow CO2 hydration assay
Carbonic anhydrase 12 = Carbonic anhydrase 12 (Homo sapiens, UniProt O43570); test: Inhibition of recombinant human carbonic anhydrase 12 assessed as inhibition constant preincubated with enzyme for 10 mins by phenol red dye based stopped flow CO2 hydration assay
Carbonic anhydrase 12, sequence (O43570 whole entry): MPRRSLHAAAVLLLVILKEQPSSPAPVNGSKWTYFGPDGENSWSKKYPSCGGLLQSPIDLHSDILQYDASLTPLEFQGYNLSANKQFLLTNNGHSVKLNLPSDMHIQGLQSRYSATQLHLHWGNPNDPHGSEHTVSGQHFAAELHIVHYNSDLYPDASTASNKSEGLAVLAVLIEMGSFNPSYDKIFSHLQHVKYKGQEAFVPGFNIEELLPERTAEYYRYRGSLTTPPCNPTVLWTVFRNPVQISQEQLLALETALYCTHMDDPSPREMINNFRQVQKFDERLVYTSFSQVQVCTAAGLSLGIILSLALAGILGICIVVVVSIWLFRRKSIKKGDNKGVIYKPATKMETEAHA

Carbonic anhydrase 1 = Carbonic anhydrase 1 (Homo sapiens, UniProt P00915); test: Inhibition of recombinant human carbonic anhydrase 1 assessed as inhibition constant preincubated with enzyme for 10 mins by phenol red dye based stopped flow CO2 hydration assay
Carbonic anhydrase 1, sequence (P00915 whole entry): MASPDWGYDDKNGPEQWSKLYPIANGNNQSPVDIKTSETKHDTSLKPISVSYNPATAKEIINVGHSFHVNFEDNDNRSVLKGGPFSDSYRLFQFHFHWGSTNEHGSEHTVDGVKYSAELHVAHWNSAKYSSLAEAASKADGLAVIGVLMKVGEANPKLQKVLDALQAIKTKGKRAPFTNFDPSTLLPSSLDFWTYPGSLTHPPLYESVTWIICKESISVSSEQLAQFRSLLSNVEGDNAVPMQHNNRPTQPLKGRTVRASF

Ki (Carbonic anhydrase 9) [nM] | Ki (Carbonic anhydrase 2) [nM] | Ki (Carbonic anhydrase 12) [nM] | Ki (Carbonic anhydrase 1) [nM] | Compound
854 | > 10000 | 575 | > 10000 | Cc1cc(=O)oc2cc(NC(=O)/C=C/c3ccc(C#N)cc3)ccc12
514 | > 10000 | 649 | > 10000 | Cc1cc(=O)oc2cc(NC(=O)/C=C/c3ccccc3)ccc12
881 | > 10000 | 760 | > 10000 | N#Cc1ccc(/C=C/C(=O)Nc2ccc3oc(=O)ccc3c2)cc1
488 | > 10000 | 567 | > 10000 | Cc1cc(=O)oc2cc(NC(=O)/C=C/c3ccccc3OC(F)F)ccc12
40.9 | > 10000 | 265 | > 10000 | O=C(/C=C/c1ccc(F)cc1)Nc1ccc2oc(=O)ccc2c1
43 | > 10000 | 411 | > 10000 | O=C(/C=C/c1cccc(F)c1)Nc1ccc2oc(=O)ccc2c1
884 | > 10000 | 427 | > 10000 | COc1ccc(/C=C/C(=O)Nc2ccc3oc(=O)ccc3c2)cc1
88 | > 10000 | 221 | > 10000 | O=C(/C=C/c1cccc(C(F)(F)F)c1)Nc1ccc2oc(=O)ccc2c1
817 | > 10000 | 847 | > 10000 | COc1ccc(/C=C/C(=O)Nc2ccc3c(C)cc(=O)oc3c2)c(F)c1
131 | > 10000 | 829 | > 10000 | O=C(/C=C/c1ccccc1)Nc1ccc2oc(=O)ccc2c1
639 | > 10000 | 539 | > 10000 | Cc1cc(=O)oc2cc(NC(=O)/C=C/c3cccc(F)c3)ccc12
7210 | > 10000 | 557 | > 10000 | O=C(/C=C/c1cccc([N+](=O)[O-])c1)Nc1ccc2oc(=O)ccc2c1
88.9 | > 10000 | 343 | > 10000 | O=C(/C=C/c1ccc(Cl)cc1)Nc1ccc2oc(=O)ccc2c1
3040 | > 10000 | 644 | > 10000 | COc1ccc(/C=C/C(=O)Nc2ccc3c(C)cc(=O)oc3c2)cc1OC
682 | > 10000 | 604 | > 10000 | Cc1cc(=O)oc2cc(NC(=O)/C=C/c3ccc(F)cc3)ccc12
773 | > 10000 | 699 | > 10000 | Cc1cc(=O)oc2cc(NC(=O)/C=C/c3ccc(F)c(F)c3)ccc12
647 | > 10000 | 631 | > 10000 | COc1cc(/C=C/C(=O)Nc2ccc3c(C)cc(=O)oc3c2)cc(OC)c1OC

The remaining lines, values behind:

Compound | Ki (Carbonic anhydrase 9) [nM] | Ki (Carbonic anhydrase 2) [nM] | Ki (Carbonic anhydrase 12) [nM] | Ki (Carbonic anhydrase 1) [nM]
O=C(/C=C/c1ccccc1OC(F)F)Nc1ccc2oc(=O)ccc2c1 | 384 | > 10000 | 394 | > 10000
COc1cc(/C=C/C(=O)Nc2ccc3c(c2)C=CS(=O)(=O)O3)cc(OC)c1OC | 536 | > 10000 | 208 | > 10000
COc1ccc(/C=C/C(=O)Nc2ccc3oc(=O)ccc3c2)c(OC)c1 | 87.4 | > 10000 | 446 | > 10000
N#Cc1ccc(/C=C/C(=O)Nc2ccc3c(c2)C=CS(=O)(=O)O3)cc1 | 39.8 | > 10000 | 520 | > 10000
O=C(/C=C/c1ccc(C(F)(F)F)cc1)Nc1ccc2oc(=O)ccc2c1 | 91.1 | > 10000 | 236 | > 10000
O=C(/C=C/c1ccccc1OC(F)F)Nc1ccc2c(c1)C=CS(=O)(=O)O2 | 92.8 | > 10000 | 349 | > 10000
COc1ccc(/C=C/C(=O)Nc2ccc3oc(=O)ccc3c2)cc1OC | 321 | > 10000 | 15.5 | > 10000
O=C(/C=C/c1cccc(C(F)(F)F)c1)Nc1ccc2c(c1)C=CS(=O)(=O)O2 | 65.4 | > 10000 | 480 | > 10000
NS(=O)(=O)c1ccc(NC(=O)/C=C/c2ccccc2OC(F)F)cc1 | 6 | – | – | –
COc1ccc(/C=C/C(=O)Nc2ccc3c(c2)C=CS(=O)(=O)O3)c(F)c1 | 80.4 | > 10000 | 399 | > 10000
O=C(/C=C/c1ccc(F)c(F)c1)Nc1ccc2oc(=O)ccc2c1 | 340 | > 10000 | 206 | > 10000
COc1cc(/C=C/C(=O)Nc2ccc3oc(=O)ccc3c2)cc(OC)c1OC | 157 | > 10000 | 149 | > 10000
O=C(/C=C/c1ccc(F)cc1)Nc1ccc2c(c1)C=CS(=O)(=O)O2 | 517 | > 10000 | 506 | > 10000
COc1ccc(/C=C/C(=O)Nc2ccc3oc(=O)ccc3c2)c(F)c1 | 472 | > 10000 | 137 | > 10000
Cc1cc(=O)oc2cc(NC(=O)NS(=O)(=O)c3ccc(F)cc3)ccc12 | 20.2 | – | 1.8 | –
O=C(/C=C/c1cc(Cl)cc(Cl)c1)Nc1ccc2oc(=O)ccc2c1 | 305 | > 10000 | 701 | > 10000
O=C(/C=C/c1ccc(F)c(F)c1)Nc1ccc2c(c1)C=CS(=O)(=O)O2 | 720 | > 10000 | 568 | > 10000

From ChEMBL document CHEMBL4725278, “New coumarin/sulfocoumarin linked phenylacrylamides as selective transmembrane carbonic anhydrase inhibitors: Synthesis and in-vitro biological evaluation” (Bioorg Med Chem, 2020)
